{"source": "patent US20250186379A1", "about": "“METHODS AND AGENTS FOR DECREASING INSULIN RESISTANCE” (Whitehead Institute for Biomedical Research, priority 2021, published 2025)", "test_system": "insulin receptor (IR)", "assay": "Immunoblot for IR levels in HepG2 cells", "type": "cell-based, human", "details": "insulin resistant HepG2 cells treated with (RM) or without (R) metformin", "method": "Cells were washed with ice-cold PBS and lysed in Cell Lytic M (Sigma-Aldrich C2978) supplemented with protease and phosphatase inhibitors (Sigma Aldrich, 11873580001 and 4906837001) directly on the wells. Lysates were placed into a 1.5 ml tube and mixed at 4° C. for 20 min and then centrifuged at 13,000 rpm for 15 min. Protein concentration was determined using a BCA Protein Assay Kit (Life Technologies, 23250) according to the manufacturer's instructions. Equal amounts of protein (5-50 μg per sample) were separated on 10% or 12% Bis-Tris gels in 5% XT MOPS running buffer (Bio-Rad Laboratories, 1610788) at 100V until dye front reached the end of the gel. Protein was then transferred to a 0.45 μM PVDF membrane (Millipore, IPVH00010) in ice cold transfer buffer (25 mM Tris, 192 mM glycine, 20% methanol) at 300 mA for 1 hour or 250 mA for 2 hours at 4° C. […] Immunoblot quantification was performed using the “analyze gel” tool on Fiji/ImageJ v2.1.0/153c. […]\nCells were washed with ice-cold PBS (Life Technologies, AM9625) and lysed in Cell Lytic M (Sigma Aldrich C2978) supplemented with protease and phosphatase inhibitors (Sigma Aldrich, 11873580001 and 4906837001) directly on the wells. […] Super natant was collected and protein concentration was determined using a BCA Protein Assay Kit (Life Technologies, 23250) according to the manufacturer's instructions. […]", "note": "“Also recorded” adds a separate entry of the source."}
{"smiles": "CN(C)C(=N)N=C(N)N", "note": "[metformin, reference compound]", "values": [{"measurement": "IR levels (immunoblot for IRb)", "value": "not due to changes in IR levels; also recorded: does not alter IR protein level in insulin resistant cells"}]}
